Reference: US20040039049A1, “Stable amorphous calcium pseudomonate and processes for the preparation thereof” (CHEMAGIS LTD, priority 2002, published 2004)

Legend:
[1] = Stability on storage (related substances and decomposition products); type: physicochemical; conditions: for Decomposition Products D.P. I / Related Substances (from process) P.A. B / Related Substances (from process) P.A. C / Related Substances (from process) P.A. D / Related Substances (from process) P.A. E: unit assumed
[2] = Decomposition of pseudomonic acid during the process of preparing the calcium salt; type: physicochemical; conditions: for Related Substances (from process) P.A. D / Decomposition Products D.P. I / Decomposition Products D.P. II / Related Substances (from process) P.A. B / Related Substances (from process) P.A. C / Related Substances (from process) P.A. E: before / after preparation of the calcium salt; for Decomposition Products D.P. I / Decomposition Products D.P. II / Related Substances (from process) P.A. B / Related Substances (from process) P.A. C / Related Substances (from process) P.A. E: unit assumed
Description: The calcium pseudomonate solution was prepared by a slow addition of solid calcium hydroxide to a suspension of pseudomonic acid in water. The calcium salt formed is gradually dissolved. The almost clear solution is filtered and frozen.
Pseudomonic acid (100 gr.) is suspended in water (1000 ml). The mixture is cooled below 15° C. and calcium hydroxide (ca. 7.0 gr.) is added gradually until the pH is 8. The slightly turbid mixture is filtered and the solution is frozen and lyophilized. The product obtained is crushed and milled to give amorphous calcium pseudomonate in quantitative yield.

[3] = Repeat of prior-art process (evaporation of solvents); type: physicochemical; conditions: prior-art process repeated, regardless of conditions used to distill out the water
Description: Process for the preparation of amorphous calcium pseudomonate is described in U.S. Pat. No. 4,916,155, U.S. Pat. No. 5,191,093 and U.S. Pat. No. 5,436,266. A solution of pseudomonic acid is dissolved in a mixture of methanol and water and neutralized to pH 7.1 with calcium oxide. The solution is filtered and the solvents are evaporated under reduced pressure to give solid foam. Trituration of the foam with diethyl ether affords amorphous calcium pseudomonate.
This decomposition occurred regardless of the conditions used to distill out the water.

[4] = on storage, prior patents; cited from earlier work

C/C(=C\C(=O)OCCCCCCCCC(=O)[O-])C[C@@H]1OC[C@H](C[C@@H]2O[C@H]2[C@@H](C)[C@H](C)O)[C@@H](O)[C@H]1O.C/C(=C\C(=O)OCCCCCCCCC(=O)[O-])C[C@@H]1OC[C@H](C[C@@H]2O[C@H]2[C@@H](C)[C@H](C)O)[C@@H](O)[C@H]1O.[Ca+2] [amorphous calcium pseudomonate, calcium pseudomonate]
Decomposition on storage (in words) ([1]; stored at an appropriate temperature): did not show decomposition
Decomposition Products D.P. II ([1]; t = 0): 1.00
Decomposition Products D.P. I ([1]; t = 0): 0.44%
Related Substances (from process) P.A. B ([1]; t = 0): 0.1%
Related Substances (from process) P.A. C ([1]; t = 0): 0.09%
Related Substances (from process) P.A. D ([1]; t = 0): 0.9%
Related Substances (from process) P.A. E ([1]; t = 0): 0.1%
Decomposition Products D.P. II ([1]; t = 18 months (at 2-8° C.)): 1.06
Decomposition Products D.P. I ([1]; t = 18 months (at 2-8° C.)): 0.62%
Related Substances (from process) P.A. B ([1]; t = 18 months (at 2-8° C.)): 0.18%
Related Substances (from process) P.A. C ([1]; t = 18 months (at 2-8° C.)): 0.08%
Related Substances (from process) P.A. D ([1]; t = 18 months (at 2-8° C.)): 0.97%
Related Substances (from process) P.A. E ([1]; t = 18 months (at 2-8° C.)): 0.09%
Related Substances (from process) P.A. D [2]: 1.25
Decomposition Products D.P. I [2]: 0.62%
Decomposition Products D.P. II [2]: 1.1%
Related Substances (from process) P.A. B [2]: 0.4%
Related Substances (from process) P.A. C [2]: 0.1%
Related Substances (from process) P.A. E [2]: 0.15%
Decomposition during the evaporation of the solvents (in words) [3]: appreciable decomposition
Thermal stability (in words) [4]: thermally labile

C/C(=C\C(=O)OCCCCCCCCC(=O)O)C[C@@H]1OC[C@H](C[C@@H]2O[C@H]2[C@@H](C)[C@H](C)O)[C@@H](O)[C@H]1O [pseudomonic acid, Pseudomonic acid A]
Related Substances (from process) P.A. D [2]: 1.17
Decomposition Products D.P. I [2]: 0.58%
Decomposition Products D.P. II [2]: 0.81%
Related Substances (from process) P.A. B [2]: 0.57%
Related Substances (from process) P.A. C [2]: 0.16%
Related Substances (from process) P.A. E [2]: 0.21%
Decomposition during the preparation of the calcium salt (in words) ([2]; process of the present invention): no decomposition
